The values that follow come from patent publication US6562783B2, “Phosphinylmethyl and phosphorylmethyl succinic and glutauric acid analogs as β-secretase inhibitors” (Neurologic, Inc., priority 2001, dated 2003).

The subject of the assay is sAPP secretion. Kind of assay: Enhancement of sAPP secretion (immunoblot with 6E10 antibody, densitometry). The class given is cell-based, Human. The settings on record: compound at 10 μM; FIG. 4. On the procedure: Determination of the enhancement of sAPP secretion promoted by LQ-β series of compounds:
Human fibroblasts were obtained from the Coriell Cell Repositories (Camden, N.J.). Four AD cell lines (AG06848, AG04401, AG07377, AG06263) and four age-matched control cell lines (AG07141, AG06241, AG08044, AG04560) were grown to confluence in T75 cell culture flasks. Additional information about these cell lines can be found in the Catalog of Cell Lines from the National Institute of Aging. (National Institute of Aging, Catalog of Cell Lines (1994)). The culture medium was DMEM supplemented with 10% serum (FBS, Gibco). PC12 cells were obtained from the American Cell Culture Collection and grown to confluence in T75 flasks containing DMEM supplemented with 5% FBS (Gibco), 10% horse serum (Biofluids) and 1% of a mixture of penicillin (5,000 units/ml in G sodium) and streptomycin (5,000 μg/ml).
Cells in T-75 were seeded into 100 mm cell culture plates and allowed to grow for 2 days. […]
Conventional immunoblotting techniques were employed. […] Horseradish peroxidase bound signal was detected using an enhanced chemiluminescence followed by exposure to Hyperfilm ECL (Amersham). The band intensities were quantified by densitometric analyses using a BioRad GS-710 Scanning Densitometer and Multianalyst software (BioRad).

The structures appear in SMILES notation.

Regarding `O=C(O)CC(CP(=O)(O)O)C(=O)N1CCN(C(=O)OCCOc2ccccc2)CC1` (stereo not shown) [LQ-∃1, 4-(2-Carboxymethyl-3-phosphono-propionyl)-piperazine-1-carboxylic acid 2-phenoxy-ethyl ester], the “effect on sAPP secretion compared to vehicle (DMSO) alone” value is given as “marked effect of enhancing secretion”.
